PubChem BioAssay (NCI)
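Exposure lasted 48 hours, with cells grown in 96-well plates and compounds tested at five concentrations. GI50 marks 50% less growth. The concentration for full growth arrest is given as TGI.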

Key:
Assay in all cases: DTP human tumour cell line panel, 48 h
[1] = tested on: T-47D breast
[2] = tested on: HOP-92 NSCLC
[3] = tested on: UACC-257 melanoma
[4] = tested on: HCC-2998 colon
[5] = tested on: K-562 leukemia
[6] = tested on: CCRF-CEM leukemia
[7] = tested on: MOLT-4 leukemia
[8] = tested on: SN12C renal
[9] = tested on: MALME-3M melanoma
[10] = tested on: ACHN renal
[11] = tested on: SF-539 CNS
[12] = tested on: UACC-62 melanoma
[13] = tested on: SK-OV-3 ovarian
[14] = tested on: OVCAR-4 ovarian
[15] = tested on: RPMI-8226 leukemia
[16] = tested on: BT-549 breast
[17] = tested on: OVCAR-5 ovarian
[18] = tested on: NCI-H23 lung
[19] = tested on: SNB-75 CNS
[20] = tested on: RXF 393 renal
[21] = tested on: OVCAR-8 ovarian
[22] = tested on: MDA-MB-231 breast
[23] = tested on: OVCAR-3 ovarian
[24] = tested on: EKVX NSCLC
[25] = tested on: HCT-116 colon
[26] = tested on: LOX IMVI melanoma
[27] = tested on: DU-145 prostate
[28] = tested on: TK-10 renal
[29] = tested on: M14 melanoma
[30] = tested on: HCT-15 colon
[31] = tested on: NCI-H522 lung
[32] = tested on: SK-MEL-5 melanoma
[33] = tested on: IGROV1 ovarian
[34] = tested on: MDA-MB-435
[35] = tested on: MCF7 breast
[36] = tested on: SW-620 colon
[37] = tested on: COLO 205 colon
[38] = tested on: CAKI-1 renal
[39] = tested on: NCI/ADR-RES ovarian
[40] = tested on: SF-295 CNS
[41] = tested on: U251 CNS
[42] = tested on: SK-MEL-28 melanoma
[43] = tested on: UO-31 renal
[44] = tested on: HS 578T breast
[45] = tested on: SF-268 CNS
[46] = tested on: A549 NSCLC
[47] = tested on: NCI-H226 lung
[48] = tested on: PC-3 prostate
[49] = tested on: HT29 colon
[50] = tested on: SNB-19 CNS
[51] = tested on: 786-0 renal
[52] = tested on: KM12 colon
[53] = tested on: A498 renal
[54] = tested on: HOP-62 NSCLC
[55] = tested on: NCI-H460 lung
[56] = tested on: HL-60(TB) leukemia
[57] = tested on: SK-MEL-2 melanoma
[58] = tested on: SR leukemia

SMILES: Cc1ccc(C(C)C)cc1NC(=O)Nc1ccc([N+](=O)[O-])cc1
- GI50 [1]: 1.99 µM
- TGI [1]: 7.36 µM
- GI50 [2]: 2.42 µM
- TGI [2]: 8.89 µM
- GI50 [3]: 2.41 µM
- TGI [3]: 7.71 µM
- GI50 [4]: 2090 nM
- TGI [4]: 5.44 µM
- GI50 [5]: 2.96 µM
- TGI [5]: 7.74 µM
- GI50 [6]: 1970 nM
- TGI [6]: 5.53 µM
- GI50 [7]: 2130 nM
- TGI [7]: 4.63 µM
- GI50 [8]: 2.28 µM
- TGI [8]: 8.97 µM
- GI50 [9]: 2020 nM
- TGI [9]: 6.48 µM
- GI50 [10]: 2.56 µM
- TGI [10]: 7.82 µM
- GI50 [11]: 2570 nM
- TGI [11]: 7.89 µM
- GI50 [12]: 1.81 µM
- TGI [12]: 10.2 µM
- GI50 [13]: 2.17 µM
- TGI [13]: 5.97 µM
- GI50 [14]: 3.44 µM
- TGI [14]: 13 µM
- GI50 [15]: 1.57 µM
- TGI [15]: 4.73 µM
- GI50 [16]: 2.13 µM
- TGI [16]: 8.21 µM
- GI50 [17]: 2.92 µM
- TGI [17]: 8.99 µM
- GI50 [18]: 2490 nM
- TGI [18]: 7.97 µM
- GI50 [19]: 2.52 µM
- TGI [19]: 10.5 µM
- GI50 [20]: 2.81 µM
- TGI [20]: 13.5 µM
- GI50 [21]: 3.19 µM
- TGI [21]: 11.6 µM
- GI50 [22]: 1.52 µM
- TGI [22]: 3.65 µM
- GI50 [23]: 1.77 µM
- TGI [23]: 6.28 µM
- GI50 [24]: 2.37 µM
- TGI [24]: 8.01 µM
- GI50 [25]: 2.45 µM
- TGI [25]: 7.13 µM
- GI50 [26]: 1.99 µM
- TGI [26]: 4.82 µM
- GI50 [27]: 2490 nM
- TGI [27]: 12 µM
- GI50 [28]: 2.36 µM
- TGI [28]: 9.44 µM
- GI50 [29]: 2.45 µM
- TGI [29]: 7.28 µM
- GI50 [30]: 2.44 µM
- TGI [30]: 8.94 µM
- GI50 [31]: 1.38 µM
- TGI [31]: 3.97 µM
- GI50 [32]: 1.55 µM
- TGI [32]: 2.9 µM
- GI50 [33]: 1.38 µM
- TGI [33]: 4.79 µM
- GI50 [34]: 2.19 µM
- TGI [34]: 6.5 µM
- GI50 [35]: 1950 nM
- TGI [35]: 5.72 µM
- GI50 [36]: 2.89 µM
- TGI [36]: 10.7 µM
- GI50 [37]: 1.67 µM
- TGI [37]: 3.03 µM
- GI50 [38]: 2.1 µM
- TGI [38]: 5.62 µM
- GI50 [39]: 2610 nM
- TGI [39]: 7.7 µM
- GI50 [40]: 1.84 µM
- TGI [40]: 5.11 µM
- GI50 [41]: 2250 nM
- TGI [41]: 6.46 µM
- GI50 [42]: 2.78 µM
- TGI [42]: 10.4 µM
- GI50 [43]: 1.54 µM
- TGI [43]: 5.79 µM
- GI50 [44]: 1.66 µM
- TGI [44]: 5.18 µM
- GI50 [45]: 2.67 µM
- TGI [45]: 12.1 µM
- GI50 [46]: 2.63 µM
- TGI [46]: 11.1 µM
- GI50 [47]: 1.77 µM
- TGI [47]: 6.14 µM
- GI50 [48]: 2.75 µM
- TGI [48]: 12.2 µM
- GI50 [49]: 3.2 µM
- TGI [49]: 10.2 µM
- GI50 [50]: 2.99 µM
- TGI [50]: 12 µM
- GI50 [51]: 2.32 µM
- TGI [51]: 5.29 µM
- GI50 [52]: 2.25 µM
- TGI [52]: 5.91 µM
- GI50 [53]: 1190 nM
- TGI [53]: 4.45 µM
- GI50 [54]: 2.53 µM
- TGI [54]: 5.92 µM
- GI50 [55]: 2.21 µM
- TGI [55]: 5.34 µM

SMILES: COc1cccc(C2NC(=S)NC(C)=C2C(=O)Nc2ccc(Cl)c(Cl)c2)c1 (stereo not given)
- GI50 [1]: 14.4 µM
- TGI [1]: > 50 µM
- GI50 [2]: 12.5 µM
- TGI [2]: 38.7 µM
- GI50 [3]: 12.4 µM
- TGI [3]: 28.9 µM
- GI50 [5]: 16.3 µM
- TGI [5]: > 50 µM
- GI50 [56]: > 50 µM
- TGI [56]: > 50 µM
- GI50 [7]: > 50000 nM
- TGI [7]: > 50 µM
- GI50 [8]: 9.14 µM
- TGI [8]: 17.1 µM
- GI50 [10]: 10.1 µM
- TGI [10]: 23.2 µM
- GI50 [12]: 8.2 µM
- TGI [12]: 15.9 µM
- GI50 [13]: 21.3 µM
- TGI [13]: > 50 µM
- GI50 [14]: 12.8 µM
- TGI [14]: > 50 µM
- GI50 [15]: 21 µM
- TGI [15]: > 50 µM
- GI50 [16]: 7.15 µM
- TGI [16]: 16.8 µM
- GI50 [17]: 28.7 µM
- TGI [17]: > 50 µM
- GI50 [19]: 34.8 µM
- TGI [19]: > 50 µM
- GI50 [20]: 9.14 µM
- TGI [20]: 22.3 µM
- GI50 [21]: 12.4 µM
- TGI [21]: 23.9 µM
- GI50 [22]: 9.41 µM
- TGI [22]: 19.6 µM
- GI50 [23]: 8.88 µM
- TGI [23]: 18.2 µM
- GI50 [57]: 15.7 µM
- TGI [57]: > 50 µM
- GI50 [24]: 5.63 µM
- TGI [24]: 14.3 µM
- GI50 [25]: 8.47 µM
- TGI [25]: 15.9 µM
- GI50 [26]: 7.93 µM
- TGI [26]: 15.1 µM
- GI50 [27]: 7.11 nM
- TGI [27]: 12 µM
- GI50 [28]: 12.8 µM
- TGI [28]: 28.6 µM
- GI50 [29]: 10.3 µM
- TGI [29]: 19.3 µM
- GI50 [30]: 8.57 µM
- TGI [30]: 22.6 µM
- GI50 [31]: 18.3 µM
- TGI [31]: > 50 µM
- GI50 [32]: 8.43 µM
- TGI [32]: 16.1 µM
- GI50 [33]: 11.3 µM
- TGI [33]: 28.5 µM
- GI50 [34]: 8.22 µM
- TGI [34]: 16.8 µM
- GI50 [36]: 22.3 µM
- TGI [36]: > 50 µM
- GI50 [37]: 9.41 µM
- TGI [37]: 30.5 µM
- GI50 [38]: 9.69 µM
- TGI [38]: 22 µM
- GI50 [58]: 42.6 µM
- TGI [58]: > 50 µM
- GI50 [39]: > 50000 nM
- TGI [39]: > 50 µM
- GI50 [40]: 9.72 µM
- TGI [40]: 21.6 µM
- GI50 [41]: > 50000 nM
- TGI [41]: > 50 µM
- GI50 [42]: 13.3 µM
- TGI [42]: 47.7 µM
- GI50 [43]: 9.1 µM
- TGI [43]: 17.9 µM
- GI50 [44]: 10.7 µM
- TGI [44]: 28.8 µM
- GI50 [45]: 9.13 µM
- TGI [45]: 18.7 µM
- GI50 [46]: 17.9 µM
- TGI [46]: > 50 µM
- GI50 [47]: 12.1 µM
- TGI [47]: 30.7 µM
- GI50 [48]: 14.3 µM
- TGI [48]: > 50 µM
- GI50 [50]: 15.6 µM
- TGI [50]: > 50 µM
- GI50 [51]: 10.7 µM
- TGI [51]: 24 µM
- GI50 [52]: 10.1 µM
- TGI [52]: 20.5 µM
- GI50 [54]: 11.6 µM
- TGI [54]: 20.3 µM
- GI50 [55]: 8.21 µM
- TGI [55]: 16.3 µM
